Assay results taken from ChEMBL document CHEMBL1121791, “Computer-assisted structure-activity studies of chemical carcinogens. Aromatic amines” (J Med Chem, 1981).
Active and inactive are the calls of the source.

Columns and labels:
Type in all cases: functional, organism-based
Rattus norvegicus [1] = experiment: Carcinogenic activity on all sites after subcutaneous administration
Rattus norvegicus [2] = experiment: Carcinogenic activity on breast after subcutaneous administration
Rattus norvegicus [3] = experiment: Carcinogenic activity on other sites after subcutaneous administration
Rattus norvegicus [4] = experiment: Carcinogenic activity on all sites after oral administration
Rattus norvegicus [5] = experiment: Carcinogenic activity on other sites after oral administration
Rattus norvegicus [6] = experiment: Carcinogenic activity on mixed data after oral administration
Rattus norvegicus [7] = experiment: Compound was tested for carcinogenic activity on ear duct after oral administration of the compound; + denotes carcinogenic activity.
Rattus norvegicus [8] = experiment: Carcinogenic activity on breast after oral administration of the compound
Rattus norvegicus [9] = experiment: Carcinogenic activity on all sites after intraperitoneal administration
Rattus norvegicus [10] = experiment: Carcinogenic activity on breast after intraperitoneal administration
Rattus norvegicus [11] = experiment: Carcinogenic activity on liver after oral administration
Rattus norvegicus [12] = experiment: Compound was tested for carcinogenic activity on ear duct after oral administration of the compound; na denotes not available.
Rattus norvegicus [13] = experiment: Compound was tested for carcinogenic activity on breast after various routes administration of the compound; + denotes carcinogenic activity.
Rattus norvegicus [14] = experiment: Compound was tested for carcinogenic activity on mixed data after various routes administration of the compound; + denotes carcinogenic activity.
Rattus norvegicus [15] = experiment: Compound was tested for carcinogenic activity on ear duct after various routes administration of the compound; + denotes carcinogenic activity.
Rattus norvegicus [16] = experiment: Compound was tested for carcinogenic activity on liver after various routes administration of the compound; + denotes carcinogenic activity.
Rattus norvegicus [17] = experiment: Compound was tested for carcinogenic various routes subcutaneous administration of the compound; + denotes carcinogenic activity.
Rattus norvegicus [18] = experiment: Compound was tested for carcinogenic activity on other sites after various routes administration of the compound; + denotes carcinogenic activity.
Rattus norvegicus [19] = experiment: Carcinogenic activity on liver after subcutaneous administration
Rattus norvegicus [20] = experiment: Tested for carcinogenic activity on breast after oral administration of the compound; - denotes non carcinogenic activity.
Rattus norvegicus [21] = experiment: Carcinogenic activity on liver after oral administration of the compound
Rattus norvegicus [22] = experiment: Carcinogenic activity on ear duct after oral administration of the compound; - denotes non carcinogenic activity.
Rattus norvegicus [23] = experiment: Carcinogenic activity after oral administration
Rattus norvegicus [24] = experiment: Compound was tested for carcinogenic activity on mixed data after subcutaneous administration of the compound; + denotes carcinogenic activity.
Rattus norvegicus [25] = experiment: Compound was tested for carcinogenic activity on mixed data after oral administration of the compound; + denotes four or five active sites.
Rattus norvegicus [26] = experiment: Carcinogenic activity on ear duct after oral administration
Rattus norvegicus [27] = experiment: Compound was tested for carcinogenic activity on other sites after topical administration of the compound; + denotes carcinogenic activity.
Rattus norvegicus [28] = experiment: Compound was tested for carcinogenic activity on breast after topical administration of the compound; + denotes carcinogenic activity.
Rattus norvegicus [29] = experiment: Compound was tested for carcinogenic activity on all sites after topical administration of the compound; + denotes carcinogenic activity.
Rattus norvegicus [30] = experiment: Carcinogenic activity on ear duct after subcutaneous administration
Rattus norvegicus [31] = experiment: Compound was tested for carcinogenic activity on all sites after subcutaneous administration of the compound; + denotes carcinogenic activity.
Rattus norvegicus [32] = experiment: Compound was tested for carcinogenic activity on mixed data after various routes administration of the compound; + denotes carcinogenic activity
Rattus norvegicus [33] = experiment: Compound was tested for carcinogenic activity on all sites after various routes administration of the compound; + denotes carcinogenic activity.
Rattus norvegicus [34] = experiment: Carcinogenic activity on breast after oral administration
Rattus norvegicus [35] = experiment: Compound was tested for carcinogenic activity on ear duct after oral administration of the compound; na denotes data not available.
Rattus norvegicus [36] = experiment: Compound was tested for carcinogenic activity on other sites after intraperitoneal administration of the compound; + denotes carcinogenic activity.
Rattus norvegicus [37] = experiment: Compound was tested for carcinogenic activity on liver after subcutaneous administration of the compound; + denotes carcinogenic activity
Rattus norvegicus [38] = experiment: Compound was tested for carcinogenic activity on other sites after subcutaneous administration of the compound; + denotes carcinogenic activity
Rattus norvegicus [39] = experiment: Compound was tested for carcinogenic activity on all sites after subcutaneous administration of the compound; + denotes carcinogenic activity
Rattus norvegicus [40] = experiment: Compound was tested for carcinogenic activity on mixed data after various routes administration of the compound; + denotes four or five active sites
Rattus norvegicus [41] = experiment: Compound was tested for carcinogenic activity on liver after oral administration of the compound; na denotes data not available.

Measured: Activity

CC(=O)N(O)c1ccc2c(ccc3ccccc32)c1
Carcinogenic activity: Rattus norvegicus [1] | Rattus norvegicus [2] | Rattus norvegicus [3]

CN(C)c1ccc(-c2ccccc2)cc1
Carcinogenic activity: Rattus norvegicus [4] | Rattus norvegicus [5] | Rattus norvegicus [6] | Rattus norvegicus [7] | Rattus norvegicus [8]

CC(=O)Nc1csc(-c2ccc([N+](=O)[O-])o2)n1
Carcinogenic activity: Rattus norvegicus [1] | Rattus norvegicus [2] | Rattus norvegicus [3]

CC(=O)Nc1cccc2c1Cc1ccccc1-2
Carcinogenic activity: Rattus norvegicus [9] | Rattus norvegicus [10]

COc1c(N)ccc2c1Cc1ccccc1-2
Carcinogenic activity: Rattus norvegicus [11] | Rattus norvegicus [4] | Rattus norvegicus [5]
inactive: Rattus norvegicus [12]

Nc1ccc2c(c1)Cc1ccccc1-2
Carcinogenic activity: Rattus norvegicus [13] | Rattus norvegicus [14] | Rattus norvegicus [15] | Rattus norvegicus [16] | Rattus norvegicus [17] | Rattus norvegicus [18]

Cc1cc(/N=N/c2ccccc2C)ccc1N
Carcinogenic activity: Rattus norvegicus [19] | Rattus norvegicus [1]

CC(=O)Nc1ccc2[nH]c3ccccc3c2c1
inactive: Rattus norvegicus [20] | Rattus norvegicus [21] | Rattus norvegicus [4] | Rattus norvegicus [22] | Rattus norvegicus [6] | Rattus norvegicus [23]

CC(=O)N(O)c1ccc2c(c1)-c1ccccc1C2
Carcinogenic activity: Rattus norvegicus [9] | Rattus norvegicus [10]

Nc1c2ccccc2cc2ccccc12
Carcinogenic activity: Rattus norvegicus [24] | Rattus norvegicus [1] | Rattus norvegicus [2]

Nc1ccc(/C=C/c2ccc(N)cc2Cl)c(Cl)c1
Carcinogenic activity: Rattus norvegicus [19] | Rattus norvegicus [1]

CC(=O)Nc1ccc(-c2ccc(NC(C)=O)cc2C)cc1
Carcinogenic activity: Rattus norvegicus [4] | Rattus norvegicus [5] | Rattus norvegicus [25] | Rattus norvegicus [26] | Rattus norvegicus [8]

Nc1ccc2cc3ccccc3cc2c1
Carcinogenic activity: Rattus norvegicus [27] | Rattus norvegicus [28] | Rattus norvegicus [29]

CC(=O)N(C(C)=O)c1ccc(/C=C/c2ccccc2)cc1
Carcinogenic activity: Rattus norvegicus [1] | Rattus norvegicus [3] | Rattus norvegicus [30]

Nc1ccc2ccccc2c1
inactive: Rattus norvegicus [20] | Rattus norvegicus [21] | Rattus norvegicus [4] | Rattus norvegicus [22] | Rattus norvegicus [6] | Rattus norvegicus [23]

CCN(CC)c1ccc(/C=C/c2ccccc2)cc1
Carcinogenic activity: Rattus norvegicus [30] | Rattus norvegicus [31]

COc1cc(/C=C/c2ccccc2)c(OC)cc1N
Carcinogenic activity: Rattus norvegicus [1] | Rattus norvegicus [30]

CC(=O)N(O)c1ccc2c(c1)Cc1ccccc1-2
Carcinogenic activity: Rattus norvegicus [13] | Rattus norvegicus [15] | Rattus norvegicus [32] | Rattus norvegicus [16] | Rattus norvegicus [33] | Rattus norvegicus [18]

Nc1ccc(-c2ccc(N)cc2)cc1
Carcinogenic activity: Rattus norvegicus [24] | Rattus norvegicus [19] | Rattus norvegicus [1] | Rattus norvegicus [3] | Rattus norvegicus [30]

CC(=O)Nc1ccc2c(ccc3ccccc32)c1
Carcinogenic activity: Rattus norvegicus [11] | Rattus norvegicus [34] | Rattus norvegicus [4] | Rattus norvegicus [5] | Rattus norvegicus [6] | Rattus norvegicus [26]

ONc1ccc2c(c1)Cc1ccccc1-2
Carcinogenic activity: Rattus norvegicus [24] | Rattus norvegicus [1] | Rattus norvegicus [2] | Rattus norvegicus [3] | Rattus norvegicus [30]

COc1cccc(-c2cccc(OC)c2N)c1N
inactive: Rattus norvegicus [35]

ONc1ccc2ccccc2c1
Carcinogenic activity: Rattus norvegicus [36] | Rattus norvegicus [9]

Nc1ccc(/C=C/c2ccc(F)cc2)cc1
Carcinogenic activity: Rattus norvegicus [19] | Rattus norvegicus [1] | Rattus norvegicus [6] | Rattus norvegicus [3] | Rattus norvegicus [30]

Nc1ccc(-c2ccc(F)cc2)cc1
Carcinogenic activity: Rattus norvegicus [37] | Rattus norvegicus [1] | Rattus norvegicus [3]

O=S(=O)(c1ccccc1)N(O)c1ccc2c(c1)Cc1ccccc1-2
Carcinogenic activity: Rattus norvegicus [36] | Rattus norvegicus [9] | Rattus norvegicus [10]

Cc1cccc(-c2ccc(N)cc2C)c1
Carcinogenic activity: Rattus norvegicus [38] | Rattus norvegicus [39]

Cc1cc(-c2ccc(N)c(C)c2)ccc1N
Carcinogenic activity: Rattus norvegicus [24] | Rattus norvegicus [1] | Rattus norvegicus [2] | Rattus norvegicus [3] | Rattus norvegicus [26]

CC(=O)Nc1ccc2c(c1)Cc1ccccc1-2
Carcinogenic activity: Rattus norvegicus [40] | Rattus norvegicus [13] | Rattus norvegicus [15] | Rattus norvegicus [16] | Rattus norvegicus [33] | Rattus norvegicus [18]

CC(=O)Nc1ccc2c(c1)C(=O)c1ccccc1-2
Carcinogenic activity: Rattus norvegicus [11] | Rattus norvegicus [4] | Rattus norvegicus [8]
inactive: Rattus norvegicus [35]

CC(=O)Nc1ccc(-c2ccccc2)cc1
Carcinogenic activity: Rattus norvegicus [4] | Rattus norvegicus [5] | Rattus norvegicus [25] | Rattus norvegicus [26] | Rattus norvegicus [8]

CC(=O)N(O)c1cccc2c1Cc1ccccc1-2
Carcinogenic activity: Rattus norvegicus [9] | Rattus norvegicus [10]

Nc1ccc(Cc2ccc(N)cc2)cc1
inactive: Rattus norvegicus [41]

CC(=O)Nc1ccc2c(c1)-c1ccccc1C2
Carcinogenic activity: Rattus norvegicus [9] | Rattus norvegicus [10]

O=C(c1ccccc1)N(O)c1ccc2c(c1)Cc1ccccc1-2
Carcinogenic activity: Rattus norvegicus [36] | Rattus norvegicus [9] | Rattus norvegicus [10]

N#Cc1cc(/C=C/c2ccccc2)ccc1N
Carcinogenic activity: Rattus norvegicus [19] | Rattus norvegicus [1] | Rattus norvegicus [3]

Nc1ccc(/C=C/c2ccc(N)cc2)cc1
Carcinogenic activity: Rattus norvegicus [1] | Rattus norvegicus [30]

Cc1ccc(C(=O)Nc2ccc(S(=O)(=O)O)c3cc(S(=O)(=O)O)cc(S(=O)(=O)O)c23)cc1NC(=O)c1cccc(NC(=O)Nc2cccc(C(=O)Nc3cc(C(=O)Nc4ccc(S(=O)(=O)O)c5cc(S(=O)(=O)O)cc(S(=O)(=O)O)c45)ccc3C)c2)c1
active: Rattus norvegicus [11] | Rattus norvegicus [4] | Rattus norvegicus [5]
inactive: Rattus norvegicus [20] | Rattus norvegicus [22]
